{
  "source": "ChEMBL document CHEMBL5137044",
  "about": "“Expansion of the S-CN-DABO scaffold to exploit the impact on inhibitory activities against the non-nucleoside HIV-1 reverse transcriptase” (Eur J Med Chem, 2022)",
  "key": {"[1]": {"test": "Cytotoxicity against human MT4 cells assessed as cell growth inhibition incubated for 5 days by MTT assay", "type": "toxicity, cell-based", "conditions": "time 5 day"}, "[2]": {"test_system": "Human immunodeficiency virus 1", "test": "Antiviral activity against drug-resistant HIV-1 Y181C mutant infected in human MT4 cells assessed as reduction in virus-induced cytopathic effect incubated for 5 days by MTT assay", "type": "functional, organism-based", "conditions": "Human immunodeficiency virus 1, Y181C mutant, MT4, 120 h"}, "[3]": {"biological_target": "Human immunodeficiency virus type 1 reverse transcriptase (Human immunodeficiency virus 1, UniProt Q72547)", "test": "Inhibition of recombinant wild-type p66/p51 HIV-1 reverse transcriptase incubated for 40 mins by picogreen dye-based spectrofluorometric analysis"}, "Cytochrome P450 2C9": {"biological_target": "Cytochrome P450 2C9 (Homo sapiens, UniProt P11712)", "sequence (P11712 whole entry)": "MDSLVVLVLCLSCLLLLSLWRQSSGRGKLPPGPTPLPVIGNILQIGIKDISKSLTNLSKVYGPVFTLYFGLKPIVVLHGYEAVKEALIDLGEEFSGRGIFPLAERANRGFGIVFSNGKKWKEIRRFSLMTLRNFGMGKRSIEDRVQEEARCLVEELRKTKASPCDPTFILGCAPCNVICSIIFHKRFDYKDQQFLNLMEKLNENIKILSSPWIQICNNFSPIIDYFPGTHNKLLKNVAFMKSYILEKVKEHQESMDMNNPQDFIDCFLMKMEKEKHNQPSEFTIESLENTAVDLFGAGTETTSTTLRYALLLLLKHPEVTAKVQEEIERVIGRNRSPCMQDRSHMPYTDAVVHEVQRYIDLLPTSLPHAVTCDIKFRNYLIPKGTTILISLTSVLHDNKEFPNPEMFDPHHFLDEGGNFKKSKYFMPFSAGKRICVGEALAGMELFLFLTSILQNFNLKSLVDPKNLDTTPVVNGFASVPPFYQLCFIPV", "test": "Inhibition of CYP2C9 in human liver microsomes using […] as substrate incubated for 15 to 40 mins in presence of NADPH", "type": "ADME, Microsome"}, "Cytochrome P450 2C19": {"biological_target": "Cytochrome P450 2C19 (Homo sapiens, UniProt P33261)", "sequence (P33261 whole entry)": "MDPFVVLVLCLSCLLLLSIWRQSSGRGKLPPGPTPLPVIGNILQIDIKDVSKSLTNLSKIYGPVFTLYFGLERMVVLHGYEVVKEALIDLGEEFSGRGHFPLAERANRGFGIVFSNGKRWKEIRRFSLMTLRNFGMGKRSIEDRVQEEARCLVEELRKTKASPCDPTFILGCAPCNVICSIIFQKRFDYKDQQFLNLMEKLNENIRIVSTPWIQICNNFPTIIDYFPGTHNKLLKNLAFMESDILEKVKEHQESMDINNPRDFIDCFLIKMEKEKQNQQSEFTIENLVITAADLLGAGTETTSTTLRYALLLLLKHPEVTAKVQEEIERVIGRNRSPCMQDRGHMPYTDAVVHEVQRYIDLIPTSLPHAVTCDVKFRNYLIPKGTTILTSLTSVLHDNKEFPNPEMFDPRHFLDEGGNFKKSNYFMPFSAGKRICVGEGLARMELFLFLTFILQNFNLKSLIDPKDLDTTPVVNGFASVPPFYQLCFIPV", "test": "Inhibition of CYP2C19 in human liver microsomes using s-mephenytoin as substrate incubated for 15 to 40 mins in presence of NADPH", "type": "ADME, Microsome"}, "Cytochrome P450 2D6": {"biological_target": "Cytochrome P450 2D6 (Homo sapiens, UniProt P10635)", "sequence (P10635 whole entry)": "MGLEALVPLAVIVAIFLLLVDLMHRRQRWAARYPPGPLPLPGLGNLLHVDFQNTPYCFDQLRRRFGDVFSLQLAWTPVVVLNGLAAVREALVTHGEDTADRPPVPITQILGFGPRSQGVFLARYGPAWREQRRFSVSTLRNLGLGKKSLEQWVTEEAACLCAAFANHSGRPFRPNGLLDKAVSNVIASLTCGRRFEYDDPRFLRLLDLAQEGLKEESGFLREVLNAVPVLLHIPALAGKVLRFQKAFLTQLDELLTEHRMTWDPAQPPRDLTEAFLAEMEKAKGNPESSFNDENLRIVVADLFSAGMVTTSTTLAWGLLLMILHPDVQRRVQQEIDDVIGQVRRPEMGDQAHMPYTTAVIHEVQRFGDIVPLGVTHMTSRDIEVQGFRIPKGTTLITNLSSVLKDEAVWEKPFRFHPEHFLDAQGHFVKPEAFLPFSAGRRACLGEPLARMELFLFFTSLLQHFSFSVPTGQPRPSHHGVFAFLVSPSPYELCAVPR", "test": "Inhibition of CYP2D6 in human liver microsomes using dextromethorphan as substrate incubated for 15 to 40 mins in presence of NADPH", "type": "ADME, Microsome"}, "Cytochrome P450 3A4": {"biological_target": "Cytochrome P450 3A4 (Homo sapiens, UniProt P08684)", "sequence (P08684 whole entry)": "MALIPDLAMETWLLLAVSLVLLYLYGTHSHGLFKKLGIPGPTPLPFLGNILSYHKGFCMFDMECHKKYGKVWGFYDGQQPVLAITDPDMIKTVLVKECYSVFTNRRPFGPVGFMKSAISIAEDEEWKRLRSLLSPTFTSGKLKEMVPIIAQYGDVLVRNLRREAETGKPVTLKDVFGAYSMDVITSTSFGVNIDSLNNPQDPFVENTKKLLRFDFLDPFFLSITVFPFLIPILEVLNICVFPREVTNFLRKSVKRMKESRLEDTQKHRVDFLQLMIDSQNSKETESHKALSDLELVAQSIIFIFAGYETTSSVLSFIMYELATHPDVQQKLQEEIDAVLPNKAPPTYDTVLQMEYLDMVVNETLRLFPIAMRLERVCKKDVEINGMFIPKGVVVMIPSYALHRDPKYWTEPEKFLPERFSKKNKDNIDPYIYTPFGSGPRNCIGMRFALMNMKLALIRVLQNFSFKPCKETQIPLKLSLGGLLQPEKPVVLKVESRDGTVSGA", "test": "Inhibition of CYP3A4T in human liver microsomes using testosterone as substrate incubated for 15 to 40 mins in presence of NADPH", "type": "ADME, Microsome"}, "[4]": {"test": "Half life in Sprague-Dawley rat at 10 mg/kg,po measured upto 24 hrs by LC-MS/MS analysis", "type": "ADME, organism-based", "conditions": "in vivo"}, "[5]": {"test": "Tmax in Sprague-Dawley rat at 1 mg/kg,iv measured upto 24 hrs by LC-MS/MS analysis", "type": "ADME, organism-based", "conditions": "in vivo"}, "[6]": {"test": "AUC (0 to infinity) in Sprague-Dawley rat at 10 mg/kg,po measured upto 24 hrs by LC-MS/MS analysis", "type": "ADME, organism-based", "design": "dose 10 mg/kg, time < 24 hrs, route po", "conditions": "in vivo"}, "[7]": {"test": "Apparent volume of distribution in Sprague-Dawley rat at 1 mg/kg,iv measured upto 24 hrs by LC-MS/MS analysis", "type": "ADME, organism-based", "conditions": "in vivo, read-out: Vz"}, "[8]": {"test": "MRT(0 to t) in Sprague-Dawley rat at 10 mg/kg,po measured upto 24 hrs by LC-MS/MS analysis", "type": "ADME, organism-based", "conditions": "in vivo"}, "[9]": {"test": "MRT (0 to infinity) in Sprague-Dawley rat at 1 mg/kg,iv measured upto 24 hrs by LC-MS/MS analysis", "type": "ADME, organism-based", "conditions": "in vivo"}, "[10]": {"test": "Acute toxicity in healthy mouse assessed as liver damage at 1 g/Kg,IG monitored for 2 weeks by HE staining based assay", "type": "tissue-based", "conditions": "in vivo, po, 1000 mg/kg, 336 h"}, "[11]": {"test": "Acute toxicity in healthy mouse assessed as spleen damage at 1 g/Kg,IG monitored for 2 weeks by HE staining based assay", "type": "tissue-based", "conditions": "in vivo, po, 1000 mg/kg, 336 h"}, "[12]": {"test": "Acute toxicity in healthy mouse assessed as kidney damage at 1 g/Kg,IG monitored for 2 weeks by HE staining based assay", "type": "tissue-based", "conditions": "in vivo, po, 1000 mg/kg, 336 h"}, "[13]": {"test": "Fold resistance, ratio of EC50 for antiviral activity against drug-resistant HIV-1 L100I mutant infected in human MT4 cells to EC50 for antiviral activity against […] HIV-1 infected in human MT4 cells", "type": "functional"}},
  "data": [
    {"compound": "Cc1c(C(C#N)c2c(F)cccc2F)nc(SC(C)C)[nH]c1=O", "note": "(configuration not stated)", "values": [
      {"measurement": "CC50 at 120 h", "setting": "[1]", "value": 137, "unit": "µM"},
      {"measurement": "EC50", "setting": "[2]", "value": 750, "unit": "nM"},
      {"measurement": "IC50", "setting": "[3]", "value": 79, "unit": "nM"},
      {"measurement": "IC50", "setting": "Cytochrome P450 2C9", "value": 40.4, "unit": "µM"},
      {"measurement": "IC50", "setting": "Cytochrome P450 2C19", "value": 35.3, "unit": "µM"},
      {"measurement": "IC50", "setting": "Cytochrome P450 2D6", "value": "> 50", "unit": "µM"},
      {"measurement": "IC50", "setting": "Cytochrome P450 3A4", "value": "> 50", "unit": "µM"},
      {"measurement": "half-life", "setting": "[4]", "value": 263, "unit": "min"},
      {"measurement": "Tmax", "setting": "[5]", "value": 4.8, "unit": "min"},
      {"measurement": "AUC(0-inf)", "setting": "[6]", "value": 136, "unit": "µg·h/mL"},
      {"measurement": "Vd", "setting": "[7]", "value": 0.764, "unit": "L/kg"},
      {"measurement": "MRT last at 24 h", "setting": "[8]", "value": 6.2, "unit": "h"},
      {"measurement": "MRT inf", "setting": "[9]", "value": 2.41, "unit": "h"},
      {"measurement": "Activity", "setting": "[10]", "value": "Non-Toxic"},
      {"measurement": "Activity", "setting": "[11]", "value": "Non-Toxic"},
      {"measurement": "Activity", "setting": "[12]", "value": "Non-Toxic"},
      {"measurement": "Ratio EC50", "setting": "[13]", "value": 50}
    ]}
  ]
}
